Like-named read-outs stand apart in the source and are kept apart here.
Columns and labels:
cyclin KeGFP = assay: Cyclin KeGFP reporter system (eGFP/mCherry MFI by flow cytometry);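 for % degradation cyclin K-eGFP: 10 μM compound for 3 h relative to DMSO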; assay type: cell-based, H. sapiens; settings: for % degradation cyclin K-eGFP: cyclin K-eGFP reporter
Description: We used the cyclin KeGFP reporter system previously described (Słabicki et al, [2020]). Lentiviral vector (Addgene plasmid #169930) was used to infect OCI-AML5 at a MOI of 5 and were selected with puromycin. Cells were seeded in methylcellulose and let grown as colonies for 10 days. Colonies were isolated, expanded and selected based on cyclin KeGFP fluorescence in presence and absence of cyclin K degrader molecules. Selected G7 clone was used for all reported experiments. Fluorescent signal of cyclin KeGFP and mCherry were quantified by flow cytometry (BD LSRII) in each condition and the geometric mean fluorescence intensity (MFI) were calculated using FlowJo (BD Biosciences). The ratio of eGFP to mCherry was normalized to DMSO-treated cells.

CDK9/CyclinT = target: T1, CDK9/CyclinT (Homo sapiens, UniProt P50750); assay: CDK9/CyclinT in vitro kinase activity, single concentration 1 μM; assay type: biochemical; settings: single concentration 1 μM
T1 construct: purchased BPS Bioscience 79628
Description: Kinase activity was assessed using the kinase assay kits from BPS Bioscience for CDK1, CDK9 and CDK12 with Kinase Glo MAX in duplicates. Compounds were tested at a single concentration of 1 μM for CDK1 and CDK9 activity, and in a dilution ranging from 0.64 nM to 50 μM for CDK12 activity. Chemiluminescence was read using the Neo Synergy BioTek plate reader.

[1] = test system: OCI-AML5 cells expressing shRNAs targeting CDK1, 2, 4, 7, 9, cyclin K; assay: Dose response in OCI-AML5 expressing shRNAs targeting CDK1, 2, 4, 7, 9, cyclin K or control; assay type: cell-based, H. sapiens; settings: for Class: class from shRNA IC50 profile and cyclin K-eGFP degradation
OCI-AML5 cells = assay: Dose-response proliferative assay in OCI-AML5 (4 days, CellTiterGlo); assay type: cell-based, H. sapiens; settings: Homo sapiens
Description: Cell lines were purchased from the ATCC or donated from collaborators. OCI-AML5 cell line was cultured in αMEM, 10% heat-inactivated FBS supplemented with 10 ng/mL GM-CSF, OCI-AML1, U2OS and HEK293T cell lines in DMEM, 10% heat-inactivated FBS. Cells were maintained at 37 °C in 5% CO2 atmosphere.
Dose-response assays in primary AML specimens were performed as in chemical screen (see above) with the exception that compounds were tested in serial dilution (8 dilutions, 1:4, 10 μM down to 0.5 nM). Dose-response assays in OCI-AML5 cell line were conducted similarly with the following modifications: 300 cells per well were seeded in 50 μL of cell line media and cell viability was evaluated after 4 days in culture.

[2] = test system: OCI-AML5 cells expressing shRNA targeting CUL4A or CUL4B; assay: Dose response in OCI-AML5 expressing shRNAs targeting CUL4A, CUL4B or control; assay type: cell-based, H. sapiens; settings: ratio of IC50 in shCUL4A vs shCTRL OCI-AML5 cells
[3] = OCI-AML5 expressing shRNA CCNK (cyclin K), read-out: IC50 shRNA CCNK
[4] = OCI-AML5 expressing shRNA CDK1, read-out: IC50 shRNA CDK1
[5] = OCI-AML5 expressing shRNA CDK2, read-out: IC50 shRNA CDK2
[6] = OCI-AML5 expressing shRNA CDK4, read-out: IC50 shRNA CDK4
[7] = OCI-AML5 expressing shRNA CDK7, read-out: IC50 shRNA CDK7
[8] = OCI-AML5 expressing shRNA CDK9, read-out: IC50 shRNA CDK9
[9] = OCI-AML-5, OCI-AML5 cells, read-out: IC50 in AML5
[10] = Homo sapiens, OCI-AML-5, OCI-AML5 expressing shRNA CCNK (cyclin K), read-out: IC50 shRNA CCNK
[11] = Homo sapiens, OCI-AML-5, OCI-AML5 expressing shRNA CDK1, read-out: IC50 shRNA CDK1
[12] = Homo sapiens, OCI-AML-5, OCI-AML5 expressing shRNA CDK2, read-out: IC50 shRNA CDK2
[13] = Homo sapiens, OCI-AML-5, OCI-AML5 expressing shRNA CDK4, read-out: IC50 shRNA CDK4
[14] = Homo sapiens, OCI-AML-5, OCI-AML5 expressing shRNA CDK7, read-out: IC50 shRNA CDK7
[15] = Homo sapiens, OCI-AML-5, OCI-AML5 expressing shRNA CDK9, read-out: IC50 shRNA CDK9

T1 sequence (P50750 whole entry): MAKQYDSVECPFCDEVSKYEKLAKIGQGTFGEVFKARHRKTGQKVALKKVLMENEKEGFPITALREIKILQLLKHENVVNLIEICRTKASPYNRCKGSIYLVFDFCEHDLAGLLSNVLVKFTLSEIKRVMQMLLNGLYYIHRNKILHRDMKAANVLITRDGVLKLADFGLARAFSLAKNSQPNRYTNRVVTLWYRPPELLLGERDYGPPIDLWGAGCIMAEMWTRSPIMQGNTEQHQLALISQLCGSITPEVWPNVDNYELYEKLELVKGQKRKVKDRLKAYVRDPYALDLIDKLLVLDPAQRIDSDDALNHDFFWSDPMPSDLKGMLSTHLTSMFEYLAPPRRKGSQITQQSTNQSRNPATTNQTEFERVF
T1 sequence (O60563 whole entry partner): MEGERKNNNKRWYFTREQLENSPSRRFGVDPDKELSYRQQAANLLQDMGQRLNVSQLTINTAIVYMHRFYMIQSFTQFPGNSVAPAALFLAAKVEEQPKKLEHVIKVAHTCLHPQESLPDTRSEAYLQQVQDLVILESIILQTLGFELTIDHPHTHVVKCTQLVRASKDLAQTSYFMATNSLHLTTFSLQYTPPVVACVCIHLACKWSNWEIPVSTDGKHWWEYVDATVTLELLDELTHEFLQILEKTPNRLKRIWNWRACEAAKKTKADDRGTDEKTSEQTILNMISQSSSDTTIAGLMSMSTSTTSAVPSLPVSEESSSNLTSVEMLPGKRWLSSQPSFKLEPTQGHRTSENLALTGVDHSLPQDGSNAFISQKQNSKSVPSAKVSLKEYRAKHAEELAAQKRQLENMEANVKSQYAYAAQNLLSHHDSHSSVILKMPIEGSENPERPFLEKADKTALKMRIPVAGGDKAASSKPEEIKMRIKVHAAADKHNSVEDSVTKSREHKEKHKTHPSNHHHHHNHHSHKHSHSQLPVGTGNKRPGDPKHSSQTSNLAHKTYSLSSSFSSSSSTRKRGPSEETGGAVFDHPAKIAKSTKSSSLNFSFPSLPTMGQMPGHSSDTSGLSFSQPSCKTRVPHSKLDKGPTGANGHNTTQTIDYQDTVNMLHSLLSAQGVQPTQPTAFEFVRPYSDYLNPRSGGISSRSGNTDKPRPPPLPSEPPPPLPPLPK

SMILES	% degradation cyclin K-eGFP (cyclin KeGFP) [%]	% CDK9 inhibition (CDK9/CyclinT) [%]	IC50 [1, 3] [µM]	IC50 [1, 4] [µM]	IC50 [1, 5] [µM]	IC50 [1, 6] [µM]	IC50 [1, 7] [µM]	IC50 [1, 8] [µM]	Class [1]	IC50 (OCI-AML5 cells; [9]) [µM]	inhibition at 1 µM (CDK9/CyclinT) [%]	IC50 [1, 10] [µM]	IC50 [1, 11] [µM]	IC50 [1, 12] [µM]	IC50 [1, 13] [µM]	IC50 [1, 14] [µM]	IC50 [1, 15] [µM]	activity after alteration of the aminothiazole core / bulky replacement [1]	further results
CC(=O)Nc1ncc(SCc2cccnc2)s1 [UOM-005188]	6	1	> 10	2.97	> 10	> 10	> 10	> 10	2	–	–	–	–	–	–	–	–	–	–
O=C(Cc1ccc(C(F)(F)F)cc1)Nc1ncc(SCc2cccnc2)s1 [UOM-005203]	51	–	–	–	–	–	–	–	mixed 1-2	4.29	72	3.02	2.68	4.39	3.59	3.83	3.64	–	Ratio shCUL4A/shCTRL [2]: 1.13
O=C(Cc1cc(F)ccc1Br)Nc1ncc(SCc2cccnc2)s1 [UOM-005204]	12	–	–	–	–	–	–	–	2	4.48	15	6.94	3.57	8.34	5.28	8.07	4.1	–	Ratio shCUL4A/shCTRL [2]: 1.11
Cc1nnc(NC(=O)Cc2ccc(N(C)C)cc2)s1 [UOM-005596]	0	0	> 10	> 10	> 10	> 10	> 10	> 10	inactive	–	–	–	–	–	–	–	–	loss of binding of the compounds to CDK	–
CN(C)c1ccc(CC(=O)Nc2nccs2)cc1 [UOM-005597]	4	–	–	–	–	–	–	–	inactive	> 10	0	> 10	> 10	> 10	> 10	> 10	> 10	–	–
Cc1csc(NC(=O)Cc2ccc(N(C)C)cc2)n1 [UOM-005598]	1	0	> 10	> 10	> 10	> 10	> 10	> 10	inactive	–	–	–	–	–	–	–	–	neither bind to CDKs, nor degrade Cyclin K	–
CN(C)c1ccc(CC(=O)Nc2nc3c(s2)CCC3)cc1 [UOM-005599]	13	–	–	–	–	–	–	–	inactive	> 10	0	> 10	> 10	> 10	> 10	> 10	> 10	neither bind to CDKs, nor degrade Cyclin K	–
CN(C)c1ccc(CC(=O)Nc2nc3ccccc3s2)cc1 [UOM-005600]	29	10	> 10	> 10	> 10	> 10	> 10	> 10	inactive	–	–	–	–	–	–	–	–	neither bind to CDKs, nor degrade Cyclin K	–
CN(C)c1ccc(CC(=O)Nc2nncs2)cc1 [UOM-005601]	1	0	> 10	> 10	> 10	> 10	> 10	> 10	inactive	–	–	–	–	–	–	–	–	loss of binding of the compounds to CDK	–
COC(=O)c1cnc(NC(=O)Cc2ccc(N(C)C)cc2)s1 [UOM-005602]	26	–	–	–	–	–	–	–	inactive	> 10	0	> 10	> 10	> 10	> 10	> 10	> 10	–	–
CN(C)c1ccc(CC(=O)Nc2nc3ccccc3[nH]2)cc1 [UOM-005603]	10	–	–	–	–	–	–	–	inactive	> 10	0	> 10	> 10	> 10	> 10	> 10	> 10	neither bind to CDKs, nor degrade Cyclin K	–
CN(C)c1ccc(CC(=O)Nc2nc3ccccc3o2)cc1 [UOM-005604]	8	0	> 10	> 10	> 10	> 10	> 10	> 10	inactive	–	–	–	–	–	–	–	–	neither bind to CDKs, nor degrade Cyclin K	–
CN(C)c1ccc(CC(=O)Nc2nnc(SCc3cccnc3)s2)cc1 [UOM-005628]	0	–	–	–	–	–	–	–	inactive	> 10	0	> 10	> 10	> 10	> 10	> 10	> 10	loss of binding of the compounds to CDK	–
CN(C)c1ccc(C(=O)Nc2ncc(SCc3cccnc3)s2)cc1 [UOM-005845]	–	–	–	–	–	–	–	–	–	–	–	–	–	–	–	–	–	–	IC50 (OCI-AML5 cells; OCI-AML-5, 96 h, 4 days incubation, read-out: IC50 OCI-AML5): 1.97 µM; % cyclin KeGFP degradation (cyclin KeGFP; 3 h, 10 μM, compared to DMSO, OCI-AML5 G7 clone): 0%
